From patent US7744920B2, “Use of liposomal glucocorticoids for treating inflammatory states” (Hadasit Medical Research Services & Development Limited, priority 2004, dated 2010)
Values joined by “and” are separate entries in the source; they are usually repeats but may differ in a detail not shown here. Equal entries are not always repeated. Blank lines part the entries; values can stand above or below the compound they belong to.

Legend:
[1] = Method: Surface tension was measured using μtrouge S (Kibron Inc., Helsinki Finland). A solution containing GC derivative (300 μL) was placed in the well after calibration and zeroing of the sensor using pure water and air. The measurement was performed at 26° C.
[2] = Precipitation of MPS in calcium acetate solution; assay type: physicochemical; conditions: 600 mOsm Ca-acetate, 63° C, 5 mg/ml, 40 minutes
Method: To 600 mOsm Ca-acetate solution at 63° C and at different pH points MPS was added at final concentration of 5 mg/ml, then mixed solution was incubated for 40 minutes after which the solution was centrifuged and the supernatant was analyzed using […].

[3] = test system: Adjuvant Arthritis (AA); assay: Effect of SSL-MPS on AA at peak of disease; assay type: in vivo, Lewis rats; conditions: for AA score after the second injection at day 23: SSL-MPS and free-MPS 10 mg/kg BW on days 19, 23, Remicade 5 mg/kg on day 19; for clinical score immediately after the first injection: day 19, SSL-MPS and free-MPS 10 mg/kg BW, Remicade 5 mg/kg
[4] = State of aggregation (turbidity) of MPS as function of pH; assay type: physicochemical
Method: Aggregation of MPS was determined from the change in turbidity measured as intensity of light scattered at 90° to excitation beam using a spectrofluormeter under conditions that MPS lack absorbance (excitation and emission at the same wavelength Ex=600 nm Em=600 nm). There is a large increase in the light scattered by MPS solution/dispersion due to formation of aggregates.
The intensity of scattered light (at 90° to the excitation), also defined as turbidity is proportional to concentration and to the size of the aggregates. [Zuidam, N. J. and Barenholz, Y., Biochim. Biophys. Acta 1368:115-128 (1998)]. The state of aggregation of MPS was tested in the following manner: To quartz cuvette MPS (2 ml) at concentration of ˜6.5mg/ml MPS was added. The solution was tittered with HCl (1.756 M) and light scattering using excitation and emission at (both at 600 nm with attenuation of 1%) and pH of the solution was monitored.

[5] = test system: Adjuvant Arthritis (AA); assay: Treatment of Adjuvant Arthritis (AA), injections from day 10 after induction; assay type: in vivo, Lewis rats; conditions: 2 i.v. injections on days 10 and 14, 5 then 10 mg/kg BW (FIG. 7A)
[6] = Loading efficiency of MPS into liposomes; assay type: physicochemical; conditions: HSPC:Chol:2000PEG-DSPE liposomes
Method: A stock solution of methylprednisolone hemisuccinate sodium salt (MPS, the GC derivative) was dissolved in 5% dextrose (pH 7.2) to a concentration of ˜9 mg/ml and added to the preformed SSL dispersion after the calcium acetate gradient was established. MPS concentration was ˜9 mg/ml and phospholipid ˜32 mM phosphate.
Loading was achieved by incubation of the components above for the desired time at 62° C. (above matrix lipid Tm). Liposomes were then cooled to 4° C. and dialyzed against 5% dextrose at 4° C. to remove acetate released during loading and to remove unloaded drug or alternatively unloaded drug was removed by the ion exchanger Dowex 1×400 mesh (Cl^− form).
Loading efficiency is the ratio between MPS/phospholipid concentrations after and before loading. The quantification of MPS was done in an HPLC apparatus as described by Anderson, and Taphouse 1981 [Anderson B. D. and Taphouse. V. J Pharm Sci, 70:181-6 (1981)], quantification of phospholipid was done by modified Bartlet procedure [Shmeeda, H., et al. In: Methods in Enzymology “Liposomes”, (Düzgünes, N., ed.), 367:272-292 (2003)].

[7] = Partition coefficient (logD) by shake flask; assay type: physicochemical; conditions: FIG. 1B
Method: Partition coefficient (logD) of some GC derivatives (which are amphipathic weak acids) was determined by the ‘shake flask’ as described [Samuni, A. M. and Barenholz, Y., Free Radicals Biol. Med. 22:1165-1174 (1997)].

[8] = Stability of liposomal formulation upon storage at 4° C. (gel exclusion chromatography); assay type: physicochemical; conditions: encapsulated in liposome, storage at 4° C. for 14 months
Method: The level of MPS released from SSL-MPS was determined by first separating the liposomes from free MPS using gel exclusion chromatography on Sepharose cross-linked CL-4B column using. Liposomes were eluted at the void volume and the free MPS at the later eluted fractions (FIG. 3A-3B). Stability upon storage at 4° C. and kinetic of release at 37° C. in 80% plasma was determined by gel exclusion chromatography described above. Then the different column fractions were analyzed as described above, for MPS, phospholipids and Ca in the void volume fraction.

[9] = cited from earlier work
[10] = liposomal formulation, after 24 hours, ex vivo; cited from earlier work

CAC (critical association/aggregation concentration) ([1]; 26° C.): ~5 mM | % MPS precipitated ([2]; pH 4.5): 97% and 96.6% | % MPS precipitated ([2]; pH 6.2): 42.8% | % MPS precipitated ([2]; pH 6.8): 44.1% | state of aggregation (turbidity) ([4]; acidic pH): aggregates | state of aggregation (turbidity) ([4]; pH 7.2): non-aggregated water soluble | % Encapsulation ([6]; batch 04 May 2005, after dialysis): 93.2% | % Encapsulation ([6]; batch 06 Apr. 2005, after dialysis): 96.6% | % Encapsulation ([6]; batch 18 Jul. 2004, after dialysis): 99.1% | partition coefficient at different pH points [7]: amphipathic substance
Compound: C[C@H]1C[C@@H]2[C@H]([C@@H](O)C[C@@]3(C)[C@H]2CC[C@]3(O)C(=O)COC(=O)CCC(=O)[O-])[C@@]2(C)C=CC(=O)C=C12.[Na+] [MPS, methylprednisolone sodium hemisuccinate]
surface activity ([1]; concentrations 0.785-30 mM): surface active at all concentrations used | AA score after the second injection at day 23 [3]: minimal decline | clinical score immediately after the first injection [3]: very slow decline | effect on AA [5]: neither the free MPS nor the empty liposome had any effect on AA

reduction in the GC derivative from initial concentration [8]: less than 20%
Compound: C[C@H]1C[C@@H]2[C@H]([C@@H](O)C[C@@]3(C)[C@H]2CC[C@]3(O)C(=O)COC(=O)CCC(=O)O)[C@@]2(C)C=CC(=O)C=C12 [Methylprednisolone hemisuccinate]

Compound: REMICADE: positive control, Remicade 5 mg/kg (on day 19)
AA score after the second injection at day 23 [3]: minimal decline | clinical score immediately after the first injection [3]: very slow decline

Compound: triamcinolone acetonide phosphate
pKa [9]: below 2 | acidic corticosteroid retained by the liposome [10]: more than 75%
